Values quoted from earlier work in patent US20120245552A1, “Combination Therapy” (POP TEST CORTISOL LLC, priority 2011, published 2012).

What was measured:
GCR = biological target: T1, GCR (Homo sapiens, UniProt P04150); conditions: cited from earlier work
T1 sequence (P04150 1-777): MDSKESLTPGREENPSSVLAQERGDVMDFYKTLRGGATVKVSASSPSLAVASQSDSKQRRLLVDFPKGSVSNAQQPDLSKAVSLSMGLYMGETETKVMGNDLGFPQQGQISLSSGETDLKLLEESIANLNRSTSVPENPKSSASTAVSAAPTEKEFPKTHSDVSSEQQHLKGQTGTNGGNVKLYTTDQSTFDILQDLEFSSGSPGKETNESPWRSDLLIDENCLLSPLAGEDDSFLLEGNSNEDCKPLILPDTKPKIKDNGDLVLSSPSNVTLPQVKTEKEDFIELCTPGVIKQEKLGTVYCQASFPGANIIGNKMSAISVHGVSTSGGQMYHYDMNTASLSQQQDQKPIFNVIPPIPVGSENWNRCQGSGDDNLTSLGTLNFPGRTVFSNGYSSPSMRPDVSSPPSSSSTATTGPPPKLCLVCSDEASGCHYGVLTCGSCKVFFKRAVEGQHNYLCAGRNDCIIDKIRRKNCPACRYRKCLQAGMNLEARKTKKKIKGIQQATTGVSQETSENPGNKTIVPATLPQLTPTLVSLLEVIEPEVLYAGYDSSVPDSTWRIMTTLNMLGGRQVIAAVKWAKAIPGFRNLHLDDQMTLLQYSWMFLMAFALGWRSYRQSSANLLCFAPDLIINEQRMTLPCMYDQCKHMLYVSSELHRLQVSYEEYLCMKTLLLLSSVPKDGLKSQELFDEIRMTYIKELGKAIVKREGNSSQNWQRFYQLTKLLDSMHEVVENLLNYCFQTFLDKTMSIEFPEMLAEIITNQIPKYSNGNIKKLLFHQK

[1] = system: other related steroidal hormone receptors (such as those for estrogen and progesterone); conditions: cited from earlier work
[2] = phase I and phase II clinical trials; cited from earlier work

## CC#C[C@]1(O)CC[C@H]2[C@@H]3CCC4=CC(=O)CCC4=C3[C@@H](c3ccc4c(c3)OCO4)C[C@@]21C [ORG 34517, (11β,17β)-11-(1,3-benzodioxol-5-yl)-17-hydroxy-17-(1-propynyl)estra-4,9-dien-3-one]
GCR
  GCR binding affinity: high
[1]
  cross-binding to other related steroidal hormone receptors: without significant cross-binding
[2]
  significant toxicities and side effects: none were identified
